# Patent US12071443B2, “Prolyl hydroxylase domain-containing protein (PHD) inhibitors and uses thereof” (Insilico Medicine IP Limited, priority 2021, dated 2024)
# How the values were obtained:
# [1] = system: Caco2-HIF1α-HiBiT-clone-1 cells; test: Caco-2 HIF1α-HiBiT assay; assay type: cell-based; conditions: Homo sapiens, Caco-2; Caco2-HIF1α-HiBiT-clone-1 cells, 6 h incubation, luminescence; read-out: Caco2-HIF1α-HiBit assay - EC50
# PHD2 = PHD2 (Homo sapiens, UniProt Q9GZT9); test: PHD2 enzymatic assay (AlphaScreen); assay type: biochemical; conditions: PHD2 enzyme, AlphaScreen, IC50 from % inhibition; read-out: PHD2
# Sequence of PHD2 (Q9GZT9 whole entry): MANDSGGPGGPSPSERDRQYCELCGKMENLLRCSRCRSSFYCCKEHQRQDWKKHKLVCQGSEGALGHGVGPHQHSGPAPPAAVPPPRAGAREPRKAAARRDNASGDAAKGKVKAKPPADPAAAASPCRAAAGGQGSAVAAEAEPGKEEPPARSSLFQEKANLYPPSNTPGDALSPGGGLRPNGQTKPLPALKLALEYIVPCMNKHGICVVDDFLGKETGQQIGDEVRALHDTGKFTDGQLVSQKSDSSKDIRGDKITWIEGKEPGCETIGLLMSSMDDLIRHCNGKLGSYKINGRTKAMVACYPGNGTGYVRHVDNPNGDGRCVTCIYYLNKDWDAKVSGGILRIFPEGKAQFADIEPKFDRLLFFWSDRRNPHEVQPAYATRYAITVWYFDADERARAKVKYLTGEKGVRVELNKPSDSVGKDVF
Structure (SMILES),EC50 [1] [µM],IC50 (PHD2) [µM]
CO[C@@H]1CCN(c2ccc3c(O)c(C(=O)NCc4ccc(C#N)nc4)ncc3n2)C1 [Example 27],< 2.5,< 0.005
CC(C)(C)OC(=O)NC1CCN(c2ccc3c(O)c(C(=O)NCc4ccc(C#N)nc4)ncc3n2)C1=O (stereo not drawn) [Example 144],2.5 to 5,0.005 to 0.02
COCCOC(=O)C1CCN(c2ccc3c(O)c(C(=O)NCc4ccc(C#N)nc4)ncc3n2)CC1 [Example 86],10 to 100,< 0.005
CC(C)(C)OC(=O)N1CCN(c2ccc3c(O)c(C(=O)NCc4cnc(C#N)nc4)ncc3n2)CC1 [Example 133],2.5 to 5,0.005 to 0.02
"N#Cc1ccc(CNC(=O)c2ncc3nc(N4CCN(C(=O)CCO)CC4)ccc3c2O)cn1 [Example 72, N-((6-cyanopyridin-3-yl)methyl)-5-hydroxy-2-(4-(3-hydroxypropanoyl)piperazin-1-yl)-1,7-naphthyridine-6-carboxamide]",5 to 7.5,< 0.005
"CC(=O)N1CCN(c2ccc3c(O)c(C(=O)NCc4ccc(C#N)cc4Cl)ncc3n2)C[C@@H]1CO [Example 63, (R)-2-(4-acetyl-3-(hydroxymethyl)piperazin-1-yl)-N-(2-chloro-4-cyanobenzyl)-5-hydroxy-1,7-naphthyridine-6-carboxamide]",7.5 to 10,0.005 to 0.02
N#Cc1ccc(CNC(=O)c2ncc3nc(N4CCC(C(=O)OC5CC5)CC4)ccc3c2O)cn1 [Example 96],10 to 100,< 0.005
CC(C)(C)OC(=O)N1CCN(c2ccc3c(O)c(C(=O)NCc4ccc(C#N)nc4)ncc3n2)C[C@@H]1CO [Example 47],< 2.5,< 0.005
C[C@@H]1CN(c2ccc3c(O)c(C(=O)NCc4ccc(C#N)nc4)ncc3n2)CCN1C(=O)OC(C)(C)C [Example 149],2.5 to 5,< 0.005
"CC(=O)N1CCN(c2ccc3c(O)c(C(=O)NCc4ccc(C#N)nc4)ncc3n2)C[C@@H]1CO [Example 46, (R)-2-(4-acetyl-3-(hydroxymethyl)piperazin-1-yl)-N-((6-cyanopyridin-3-yl)methyl)-5-hydroxy-1,7-naphthyridine-6-carboxamide]",10 to 100,< 0.005
"N#Cc1ccc(COC(=O)c2ncc3nc(N4CC[C@@H](O)C4)ccc3c2O)cn1 [Example 15, (6-cyanopyridin-3-yl)methyl (R)-5-hydroxy-2-(3-hydroxypyrrolidin-1-yl)-1,7-naphthyridine-6-carboxylate]",10 to 100,1 to 100
COC(=O)[C@H]1CN(c2ccc3c(O)c(C(=O)NCc4ccc(C#N)nc4)ncc3n2)CCO1 [Example 92],5 to 7.5,< 0.005
CP1(=O)CCN(c2ccc3c(O)c(C(=O)NCc4ccc(C#N)cc4Cl)ncc3n2)CC1 [Example 16],10 to 100,< 0.005
COC(=O)C1(O)CN(c2ccc3c(O)c(C(=O)NCc4ccc(C#N)nc4)ncc3n2)C1 [Example 121],7.5 to 10,< 0.005
COC(=O)N1CCN(c2ccc3c(O)c(C(=O)NCc4ccc(C#N)nc4)ncc3n2)CC1 [Example 120],10 to 100,< 0.005
CC(C)(C)OC(=O)NC1CCN(c2ccc3c(O)c(C(=O)NCc4ccc(C#N)nc4)ncc3n2)CC1 [Example 123],2.5 to 5,< 0.005
"N#Cc1ccc(CNC(=O)c2ncc3nc(N4CCOC(=O)C4)ccc3c2O)cn1 [Example 85, N-((6-cyanopyridin-3-yl)methyl)-5-hydroxy-2-(2-oxomorpholino)-1,7-naphthyridine-6-carboxamide]",10 to 100,< 0.005

Structure (SMILES),EC50 [1] [µM],IC50 (PHD2) [µM]
N#Cc1ccc(CNC(=O)c2ncc3nc(N4CCN(C5CC5)CC4)ccc3c2O)c(Cl)c1 [Example 4],10 to 100,0.005 to 0.02
N#Cc1ccc(CNC(=O)c2ncc3nc(N4CC[C@@H](CO)C4)ccc3c2O)cn1 [Example 42],2.5 to 5,< 0.005
N#Cc1ccc(CNC(=O)c2ncc3nc(N4CCN(C5CC5)[C@H](CO)C4)ccc3c2O)c(Cl)c1 [Example 71],2.5 to 5,0.005 to 0.02
"N#Cc1ccc(CNC(=O)c2ncc3nc(N4CC[C@H](N)C4)ccc3c2O)cn1 [Example 126, (S)-2-(3-aminopyrrolidin-1-yl)-N-((6-cyanopyridin-3-yl)methyl)-5-hydroxy-1,7-naphthyridine-6-carboxamide]",10 to 100,< 0.005
"N#Cc1ccc(CNC(=O)c2ncc3nc(N4CCN[C@@H](C(=O)O)C4)ccc3c2O)cn1 [Example 51, (R)-4-(6-(((6-cyanopyridin-3-yl)methyl)carbamoyl)-5-hydroxy-1,7-naphthyridin-2-yl)piperazine-2-carboxylic acid]",10 to 100,< 0.005
Cc1cc(C#N)ncc1CNC(=O)c1ncc2nc(N3CCOCC3)ccc2c1O [Example 20],2.5 to 5,< 0.005
"N#Cc1ccc(CNC(=O)c2ncc3nc(N4CCC(N)CC4)ccc3c2O)cn1 [Example 124, 2-(4-aminopiperidin-1-yl)-N-((6-cyanopyridin-3-yl)methyl)-5-hydroxy-1,7-naphthyridine-6-carboxamide]",10 to 100,< 0.005
COC(=O)[C@H]1CN(c2ccc3c(O)c(C(=O)NCc4ccc(C#N)nc4)ncc3n2)CCN1C1CC1 [Example 89],2.5 to 5,< 0.005
N#Cc1ccc(CNC(=O)c2ncc3nc(N4CCOCC4=O)ccc3c2O)cn1 [Example 100],7.5 to 10,0.005 to 0.02
"N#Cc1ccc(CNC(=O)c2ncc3nc(N4CC[C@@H](O)C4)ccc3c2O)c(Cl)c1 [Example 6, (R)—N-(2-chloro-4-cyanobenzyl)-5-hydroxy-2-(3-hydroxypyrrolidin-1-yl)-1,7-naphthyridine-6-carboxamide]",2.5 to 5,0.005 to 0.02
CN1CCN(c2ccc3c(O)c(C(=O)NCc4ccc(C#N)cc4Cl)ncc3n2)CC1=O [Example 19],10 to 100,0.005 to 0.02
"CN1CCN(c2ccc3c(O)c(C(=O)NCc4ccc(C#N)nc4)ncc3n2)C[C@@H]1CO [Example 45, (R)—N-((6-cyanopyridin-3-yl)methyl)-5-hydroxy-2-(3-(hydroxymethyl)-4-methylpiperazin-1-yl)-1,7-naphthyridine-6-carboxamide]",10 to 100,< 0.005
"N#Cc1ccc(CNC(=O)c2ncc3nc(N4CC[C@H](C(=O)N5CCNCC5)C4)ccc3c2O)cn1 [Example 41, (S)—N-((6-cyanopyridin-3-yl)methyl)-5-hydroxy-2-(3-(piperazine-1-carbonyl)pyrrolidin-1-yl)-1,7-naphthyridine-6-carboxamide]",10 to 100,< 0.005
"COC(=O)[C@H]1CN(c2ccc3c(O)c(C(=O)NCc4ccc(C#N)nc4)ncc3n2)CCN1 [Example 50, methyl (R)-4-(6-(((6-cyanopyridin-3-yl)methyl)carbamoyl)-5-hydroxy-1,7-naphthyridin-2-yl)piperazine-2-carboxylate]",10 to 100,< 0.005
CC(C)(C)OC(=O)N1CCN(c2ccc3c(O)c(C(=O)NCc4ccc(C#N)nc4)ncc3n2)C[C@@H]1C#N [Example 132],5 to 7.5,< 0.005
"N#Cc1ccc(CNC(=O)c2ncc3nc(N4CC(N)C4)ccc3c2O)cn1 [Example 128, 2-(3-aminoazetidin-1-yl)-N-((6-cyanopyridin-3-yl)methyl)-5-hydroxy-1,7-naphthyridine-6-carboxamide]",5 to 7.5,0.02 to 0.1
